{"source": "patent US20090239944A1", "about": "“Novel Use of Organic Compounds” (priority 2005, published 2009)", "key": {"C3H10T1/2 cells [1]": {"system": "C3H10T1/2 cells", "assay": "Glucose uptake of adipocytes (radioactive 2-deoxyglucose, basal, absence of insulin)", "type": "cell-based", "settings": "48-h treatment; for Basal glucose uptake: absence of insulin, ± SEM, DMSO control = 100%; for Basal glucose uptake (result in words): different concentrations", "description": "C3H10T1/2 cells (ATCC CCL-226) were grown for 5 days to confluence in DMEM supplemented with 10% FBS medium and induced with a mixture of insulin, dexamethasone and 3-isobutyl-1-methylxanthine to differentiate into adipocytes. Nine days after the beginning of induction, cells were treated for 48-h with the compound of the formula I-1 at different concentrations as shown in Table 1. Glucose uptake was determined using radioactive 2-deoxyglucose (10 μM 2-DG in HBS+0.5 μCi/ml of 3-[H]-2-DG), measuring glucose uptake in the absence of insulin. Basal glucose uptake was increased by 48-h treatment with the compound of the formula I-1 in a dose-dependent manner (Table 1). Growing, induction and treatment of C3H10T1/2 cells were exactly as described in Example 1, with the exception that the compound of the formula I-3 at different concentrations was used instead of the compound of the formula I-1. […] Control: C3H10T1/2 cells treated for 48 h with DMSO at the same concentration as compound-treated cells and set at 100%"}, "C57BLKS/J db/db mice": {"system": "C57BLKS/J db/db mice", "assay": "Glucose tolerance, 14-day study in db/db mice (blood glucose, OGTT, FFA)", "type": "in vivo", "description": "The efficacy of the compound of the formula I-1 on glucose tolerance was tested in a 14-day study in C57BLKS/J db/db mice (n=10/group), a model of late type 2 diabetes mellitus with severe hyperglycemia.\nMale db/db mice were obtained from Jackson Laboratory (Bar Harbor, Me., USA). Adult mice aged 8 weeks were used in the experiment. Mice were housed individually in plastic cages with bedding and allowed free access to standard rodent food and tap water. The animal rooms were controlled for temperature (24° C.), humidity (55%), and light (12-h light-dark cycle). The animals were randomized in two groups and the compound of the formula I-1 was administered orally to one of the groups for 14 days at a dose of 200 mg/kg BW/day. After 14 days of treatment the concentration of glucose was determined in blood from fed animals, i.e., animals which were not restricted from food. After a period of 10 days of treatment an oral glucose tolerance test (OGTT) was performed. For the OGTT mice were fasted overnight and then a 1-g glucose/kg BW solution was orally administered. Blood samples were taken before and 15, 30, 45, 60, 90, 120, 150, 180 min after the glucose challenge for determination of blood glucose levels and then the area under the curve (AUC) was determined. Blood glucose was measured by a glucose analyzer (Glucotrend Premium, Roche Diagnostics, Rotkreuz, Switzerland). The glucose and the free fatty acid (FFA) levels of fed animals (see above) were lowered after 14 days of treatment with the compound of the formula I-1. After 10 days of treatment with the compound of the formula I-1 the glucose levels of fasted animals, i.e., animals with an overnight fasting (see above) were decreased as compared to the untreated control group."}, "C3H10T1/2 cells [2]": {"system": "C3H10T1/2 cells", "assay": "Differentiation of adipocytes (oil Red O staining, absorbance at 540 nm)", "type": "cell-based", "settings": "for Differentiation of the cells into adipocytes (result in words): co-treatment with insulin, compared with insulin alone; for Mean OD ± SEM (oil Red O, 540 nm): 10-day treatment", "description": "C3H10T1/2 cells were grown to confluence as described in Example 1, then treated for 10 days with insulin alone (negative control) or with a mixture of insulin and the compound of the formula I-1 at different concentrations (see Table 2), with re-feeding with fresh medium and compounds every 48-h. After 10-days of treatment, the cells were stained with oil Red O as follows: cells were washed 2× in PBS and fixed in 10% formalin at room temperature for 1 h. After removal of formalin, 200 μl of oil Red O staining solution (3:2 mixture of 0.5% w/v oil Red O stock solution and water) was applied to each well. The cells were incubated for 20 min at room temperature, washed twice in 2×PBS and incubated for 10 min with 300 μl of isopropanol/well for oil Red O extraction. Quantification of oil Red O was determined by measuring absorbance at 540 nm (mean OD). […] C3H10T1/2 cells were grown and treated as described in Example 4 with the exception that the compound of the formula I-2 was used instead of the compound of the formula I-1. The measurement of adipocyte differentiation using the oil Red O assay was performed as described in Example 4. […] C3H10T1/2 cells were grown and treated as described in Example 4 with the exception that the compound of the formula I-3 was used instead of the compound of the formula I-1. The measurement of adipocyte differentiation using the oil Red O assay was performed as described in Example 4."}, "[3]": {"settings": "after 14 days of treatment, 200 mg/kg BW/day orally"}, "[4]": {"settings": "compound 1 × 10^−5 M + insulin 1 × 10^−7 M"}}}
{"molecule": "CC1(COc2ccc(CC3SC(=O)NC3=O)cc2)CCCCC1", "note": "(centres unmarked) [Ciglitazone, ciglitazone, reference compound]", "values": [{"measurement": "Basal glucose uptake", "setting": "C3H10T1/2 cells [1]; 5 × 10^−5 M", "value": "496.178 ± 61.86 % of control"}]}
{"molecule": "COc1ccc(C(=O)/C=C/c2c(CCN(C)C(C)=O)cc3c(c2OC)OCO3)cc1", "note": "[I-1]", "values": [{"measurement": "glucose AUC of an OGTT (result in words)", "setting": "C57BLKS/J db/db mice; 1 g glucose/kg body weight, day 10", "value": "significantly reduced"}, {"measurement": "Glucose AUC", "setting": "C57BLKS/J db/db mice; OGTT (1 g glucose/kg BW) on day 10, 0-180 min, 200 mg/kg BW/day orally, control 69673", "value": 54295}, {"measurement": "glucose levels of fasted animals (result in words)", "setting": "C57BLKS/J db/db mice; after 10 days of treatment, compared to the untreated control group", "value": "decreased"}, {"measurement": "free fatty acid (FFA) levels of fed animals (result in words)", "setting": "C57BLKS/J db/db mice; [3]", "value": "lowered"}, {"measurement": "glucose levels of fed animals (result in words)", "setting": "C57BLKS/J db/db mice; [3]", "value": "lowered"}, {"measurement": "blood glucose levels during the OGTT (result in words)", "setting": "C57BLKS/J db/db mice; compared with the control group, 15-180 min after glucose challenge", "value": "lower at all time points"}, {"measurement": "Blood Glucose Fasted", "setting": "C57BLKS/J db/db mice; db/db mice, 200 mg/kg BW/day orally, after 10 days, overnight fasting, control 175", "value": 135, "unit": "mg/dL"}, {"measurement": "FFA", "setting": "C57BLKS/J db/db mice; db/db mice, 200 mg/kg BW/day orally, after 14 days, fed animals, control 15.95", "value": 12.38, "unit": "mg/dL"}, {"measurement": "Blood Glucose Fed", "setting": "C57BLKS/J db/db mice; db/db mice, 200 mg/kg BW/day orally, after 14 days, fed animals, control 859", "value": 771, "unit": "mg/dL"}, {"measurement": "Basal glucose uptake", "setting": "C3H10T1/2 cells [1]; 1 × 10^−5 M", "value": "94.58 ± 0.95 % of control"}, {"measurement": "Basal glucose uptake", "setting": "C3H10T1/2 cells [1]; 1 × 10^−6 M", "value": "97.6 ± 22.9 % of control"}, {"measurement": "Basal glucose uptake", "setting": "C3H10T1/2 cells [1]; 2.4 × 10^−5 M", "value": "128.6 ± 0.89 % of control"}, {"measurement": "Basal glucose uptake", "setting": "C3H10T1/2 cells [1]; 5 × 10^−4 M", "value": "194.058 ± 0.05 % of control"}, {"measurement": "Basal glucose uptake (result in words)", "setting": "C3H10T1/2 cells [1]", "value": "increased"}, {"measurement": "Differentiation of the cells into adipocytes (result in words)", "setting": "C3H10T1/2 cells [2]", "value": "higher differentiation of the cells into adipocytes than insulin alone"}, {"measurement": "Mean OD ± SEM (oil Red O, 540 nm)", "setting": "C3H10T1/2 cells [2]; [4]", "value": "0.69 ± 0.019"}]}
{"molecule": "COc1ccc(C(=O)/C=C/c2cccc(OC(=O)/C=C/c3ccccc3)c2)cc1", "note": "[I-2]", "values": [{"measurement": "Differentiation of the cells into adipocytes (result in words)", "setting": "C3H10T1/2 cells [2]", "value": "higher differentiation of the cells into adipocytes than insulin alone"}, {"measurement": "Mean OD ± SEM (oil Red O, 540 nm)", "setting": "C3H10T1/2 cells [2]; [4]", "value": "0.45 ± 0.037"}]}
{"molecule": "COc1ccc(/C=C/C(=O)c2ccc(OC(=O)c3ccccc3)cc2)cc1OC", "note": "[I-3]", "values": [{"measurement": "Basal glucose uptake", "setting": "C3H10T1/2 cells [1]; 1 × 10^−5 M", "value": "133.28 ± 23.4 % of control"}, {"measurement": "Basal glucose uptake", "setting": "C3H10T1/2 cells [1]; 1 × 10^−6 M", "value": "105.37 ± 2.21 % of control"}, {"measurement": "Basal glucose uptake", "setting": "C3H10T1/2 cells [1]; 2 × 10^−4 M", "value": "142.84 ± 18.05 % of control"}, {"measurement": "Basal glucose uptake", "setting": "C3H10T1/2 cells [1]; 5 × 10^−5 M", "value": "116.17 ± 15.96 % of control"}, {"measurement": "Basal glucose uptake (result in words)", "setting": "C3H10T1/2 cells [1]", "value": "increase"}, {"measurement": "Differentiation of the cells into adipocytes (result in words)", "setting": "C3H10T1/2 cells [2]", "value": "higher differentiation of the cells into adipocytes than insulin alone"}, {"measurement": "Mean OD ± SEM (oil Red O, 540 nm)", "setting": "C3H10T1/2 cells [2]; [4]", "value": "0.53 ± 0.025"}, {"measurement": "Mean OD ± SEM (oil Red O, 540 nm)", "setting": "C3H10T1/2 cells [2]; compound 2 × 10^−4 M + insulin 1 × 10^−7 M", "value": "0.34 ± 0.087"}, {"measurement": "Mean OD ± SEM (oil Red O, 540 nm)", "setting": "C3H10T1/2 cells [2]; compound 5 × 10^−5 M + insulin 1 × 10^−7 M", "value": "0.53 ± 0.017"}]}
{"molecule": "Insulin: insulin alone, negative control of the adipocyte differentiation test", "values": [{"measurement": "Mean OD ± SEM (oil Red O, 540 nm)", "setting": "C3H10T1/2 cells [2]; insulin 1 × 10^−7 M alone (negative control)", "value": "0.28 ± 0.03"}]}
